System: primary CLL cells
Assay: Leukemia cell viability and apoptosis by DiOC6(3)/PI staining and flow cytometry
Type: cell-based, human
Description: Cell viability and apoptosis were evaluated by double-staining with the mitochondrial inner transmembrane potential (ΔΨm)-sensitive dye DiOC6(3) (3,3'-dihexyloxacarbocyanine iodide; Sigma-Aldrich) and the exclusion dye propidium iodide (PI; Immunostep), allowing identification of apoptotic [DiOC6(3)^low PI^-] and dead [PI^+] cells as per Proc. Natl. Acad. Sci. U.S.A. (2014) 111(8):3020-3025 and Methods Mol. Biol. (2016) 1419:1-16. Briefly, PBMCs were resuspended in culture medium containing 20 nM DiOC6(3) and incubated for 30 minutes at 37 °C. Then, PI (1 µg/mL) was added and cells were further incubated for 10 minutes at room temperature (RT). Cells were analyzed by flow cytometry considering DiOC6(3)^+PI^- cells as viable. In some experiments, apoptosis was evaluated by staining with Annexin V/PI. Thus, PBMCs were incubated in Annexin V binding buffer containing 5 µg/mL Annexin V-FITC (Biolegend) for 15 minutes at RT and PI (1 µg/mL) was subsequently added. Data were normalized to the untreated control as a percentage. Only samples with at least 60% of viable cells (DiOC6(3)^+; Annexin V^-) in the control (DMSO) condition were employed in this study.
The in vitro cytotoxic activity of EC-7072 against primary CLL cells was assessed by: • (i) incubating PBMCs isolated from patients with CLL (n = 13) following treatment with increasing concentrations of EC-7072 (0 - 400 nM) for 24 hours. Numbers of leukemia cells were evaluated by flow cytometry and normalized to their respective control (DMSO) condition for each individual patient to obtain percentage of leukemia cells (Figure 1A); • (ii) incubating PBMCs from patients with CLL (n = 10) with or without EC-7072 (100-400 nM) for 24 hours. Viability of leukemia cells was determined by cytofluorometric assessment of DiOC6(3)/PI staining and normalized to their respective control condition to obtain percentage viability (Figure 1B); • (iii) incubating PBMCs from patients with CLL (n = 10) with increasing concentrations of EC-7072 (0 - 400 nM) for 24 hours. Apoptosis of leukemia cells was determined by DiOC6(3)/PI staining and flow cytometry to obtain the mean percentages of apoptotic [DiOC6(3)^low PI^-] and dead [PI^+] cells (Figure 1C); • (iv) incubating PBMCs from patients with CLL (n = 10) with or without EC-7072 (200 nM) for 12 to 72 hours. Viability of leukemia cells was determined by DiOC6(3)/PI staining and normalized to their respective control condition to obtain percentage viability (Figure 1D); • (v) incubating PBMCs from patients with CLL (n = 24) with MTA (200 nM) or EC-7072 (200 nM) for 24 hours. Leukemia cell death was determined by DiOC6(3)/PI staining and flow cytometry to obtain the mean percentages of apoptotic [DiOC6(3)^low PI^-] and dead [PI^+] cells (Figure 1E); • (vi) incubating PBMCs from patients with CLL (n = 63) or healthy donors (n = 20) with or without EC-7072 (200 nM) for 24 hours. Viability of leukemia cells and healthy B cells was evaluated by DiOC6(3)/PI staining and normalized to their respective control condition to obtain percentage viability (Figure 1F); • (vii) incubating PBMCs from patients with CLL (n = 62) following treatment with EC-7072 (200 nM) for 24 hours and obtaining a cytogenetic profile for each patient. Viability of leukemia cells was evaluated by DiOC6(3)/PI staining and normalized to their respective control (DMSO) condition for each individual patient to obtain the percentage of viable [DiOC6(3)^+] cells (Figure 1G); • (viii) incubating PBMCs from patients with CLL (n = 59) following treatment with EC-7072 (200 nM) for 24 hours and determining mutational status of IgHV for each patient. Viability of leukemia cells was evaluated by DiOC6(3)/PI staining and normalized to their respective control (DMSO) condition for each individual patient to obtain the percentage of viable [DiOC6(3)^+] cells (Figure 1H). […]

## CO[C@@H]([C@@H]1Cc2cc3cc(O[C@H]4C[C@@H](O[C@H]5C[C@@H](O)[C@H](O)[C@@H](C)O5)[C@H](O)[C@@H](C)O4)c(C)c(O)c3c(O)c2C(=O)[C@H]1O[C@H]1C[C@@H](O[C@H]2C[C@@H](O[C@H]3C[C@](C)(O)[C@H](O)[C@@H](C)O3)[C@@H](O)[C@@H](C)O2)[C@H](O)[C@@H](C)O1)[C@@H](O)C(C)=O [EC-7072, mithramycin SK]
200 nM, 6 hours, PBMCs from patients with CLL (n = 8), Figure 6C
  cell death at 6 hours: not triggering detectable cell death
200 nM, 8 hours, n = 8, Figure 7K
  CLL cell death at 8 hours: does not result in noticeable CLL cell death
200 nM, 24 hours, PBMCs from patients with CLL (n = 6), exception: EC-14041, Figure 2P
  ratio of apoptosis in CLL cells relative to CLL cell death: higher ratio of apoptosis in CLL cells relative to CLL cell death than other mithralogs
200 nM, 24 hours, PBMCs from patients with CLL (n = 24), compared with MTA 200 nM, Figure 1E
  antileukemic activity (apoptotic [DiOC6(3)^low PI^-] and dead [PI^+] cells): comparable to that of MTA
200 nM, 24 hours, isolated leukemia cells from patients with CLL (n = 24)
  antileukemic activity on isolated leukemia cells versus PBMCs (apoptotic and dead cells): mimicked
200 nM, 24 hours, n = 59, Figure 1H
  viability of leukemia cells by mutational status of IgHV: did not significantly affect the sensitivity
200 nM, 24 hours, n = 62, patients with cytogenetic aberrations incl. del(17p) or del(11q), Figure 1G
  viability of leukemia cells by cytogenetic profile: no differences in the sensitivity
100 - 400 nM for 24 hours, 200 nM for 12 to 72 hours, PBMCs from patients with CLL (n = 10), dose- and time-dependent, Figures 1B-1D
  viability of leukemia cells: significantly decreased
EC-7072 200 nM in combination with α-IgM (10 µg/mL), 24 hours, n = 15
  leukemia cell survival upon BCR stimulation with anti-IgM antibodies: significantly rescued leukemia cell survival
EC-7072 200 nM with CD40L (100 ng/mL), BAFF (50 ng/mL), TNF-α (40 ng/mL), IL-6 (40 ng/mL) or IL-4 (40 ng/mL), 24 hours, n = 7
  leukemia cell death in the presence of microenvironment-derived soluble factors: none of the soluble factors tested significantly affected the leukemia cell death
co-culture with OP9 cells 72 hours, EC-7072 200 nM for the last 24 hours, n = 7
  leukemia cell viability in co-culture with OP9 stromal cells: did not enhance leukemia cell viability
Each at 200 nM, 24 hours, PBMCs from patients with CLL (n = 10), Figure 2M
  percentage viability of leukemia cells, comparison of mithralogs: second only to the mithralog EC-7073
Range of doses, EC-7072 and fludarabine 24 hours, idelalisib 48 hours, n = 4 - 6, Figure 4A
  CLL cell viability compared with idelalisib or fludarabine: reduced CLL cell viability to a greater extent than idelalisib or fludarabine

From patent EP3797781A1, “USE OF EC-7072 AND SYNERGIC COMPOSITIONS THEREOF IN TREATMENT OF CHRONIC LYMPHOCYTIC LEUKEMIA” (priority 2019, dated 2021)
